The source of these data is paper PMC7762786, “The discovery of novel antitrypanosomal 4-phenyl-6-(pyridin-3-yl)pyrimidines” (European Journal of Medicinal Chemistry, 2021).

Data set [1] in a line: In vitro cytotoxicity with L6 cells, Alamar Blue assay. The following applies: L6 rat skeletal myoblasts, 70 h incubation. It is filed as cell-based, rat. As for the experimental part: (§1) In vitro cytotoxicity with L6 cells (a […] cell line derived from rat skeletal myoblasts) were performed in 96-well microtiter plates with each well containing 100 μl of RPMI 1640 medium supplemented with 1% L-glutamine (200 mM) and 10% fetal bovine serum and 4000 L6 cells. Serial drug dilutions from 100 to 0.002 μg/mL were prepared and after 70 h of incubation the plates were microscopically inspected to ensure the validity of control wells and sterile conditions. Then, 10 μl of Alamar Blue was added to each well and the plates incubated for an additional 2 h. Plates were read with a Spectramax Gemini XS microplate fluorometer (Molecular Devices Cooperation, Sunnyvale, CA, USA) using an excitation wave length of 536 nm and an emission wave length of 588 nm.

Data set [2] deals with Trypanosoma brucei rhodesiense STIB900 (bloodstream trypomastigotes). The data set can be described thus: In vitro antitrypanosomal activity, Alamar Blue assay. The following applies: 70 h, STIB900 bloodstream forms, 70 h incubation, read-out: IC50 T. b. rhodesiense. It is filed as cell-based. As for the experimental part: Assays were performed as described by Bernal et al.. In vitro antitrypanosomal activities of compounds were determined against Trypanosoma brucei rhodesiense STIB900 (bloodstream trypomastigotes) where the parasitic stock was isolated in 1982 from a human patient in Tanzania. […] Then, 10 μl of Alamar Blue (resazurin, 12.5 mg in 100 mL double-distilled water) was added to each well and incubation continued for a further 2–4 h. Plates were read with a Spectramax Gemini XS microplate fluorometer (Molecular Devices Cooperation, Sunnyvale, CA, USA) using an excitation wavelength of 536 nm and an emission wavelength of 588 nm.

Data set [3] relates to L6 cells (rat skeletal myoblasts). The data set can be described thus: In vitro cytotoxicity with L6 cells, Alamar Blue assay. It is filed as cell-based. As to the method: as §1
[4] abbreviates: L6 cells (rat skeletal myoblasts).

Compound `COc1ccc(-c2cc(-c3cccnc3)nc(N)n2)cc1OC` [Compound 20, 4-(3,4-Dimethoxyphenyl)-6-(pyridin-3-yl)pyrimidin-2-amine] gave a melting point of 165 to 167 °C. `c1cncc(-c2cc(-c3cccnc3)ncn2)c1` [Compound 2, 4,6-Bis(Pyridin-3-yl)pyrimidine] had a melting point of 206 to 207 °C. With `COc1ccc(-c2cc(-c3cccnc3)ncn2)cc1` [Compound 8, 4-(4-Methoxyphenyl)-6-(pyridin-3-yl)pyrimidine], the melting point was 165 to 167 °C. Still for that read-out and setting: with `Nc1nc(-c2ccc(Br)cc2)cc(-c2cccnc2)n1` [Compound 19, 4-(4-Bromophenyl)-6-(pyridin-3-yl)pyrimidin-2-amine] the figure was 210 to 211 °C.

`Nc1nc(-c2ccccc2)cc(-c2cccnc2)n1` [Compound 11, 4-Phenyl-6-(pyridin-3-yl)pyrimidin-2-amine] gave a melting point of 172 to 175 °C.

`COc1ccc(-c2cc(-c3cccnc3)nc(N)n2)cc1` [Compound 18, 4-(4-Methoxyphenyl)-6-(pyridin-3-yl)pyrimidin-2-amine]: the melting point is 163 to 165 °C. Turning to `Nc1nc(-c2cccnc2)cc(-c2cccc(F)c2)n1` [Compound 17, 4-(3-Fluorophenyl)-6-(pyridin-3-yl)pyrimidin-2-amine], the melting point fell in the range of 196 to 198 °C. `c1cncc(-c2cc(-c3ccc4c(c3)OCO4)ncn2)c1` [Compound 10, 4-(2H-1,3-benzodioxol-5-yl)-6-(pyridin-3-yl)pyrimidine] gave a melting point of 173 to 175 °C. The cytotoxic concentration (CC50) at 70 h in data set [1] (setting [4]) is above 100 µM. For the same compound, in data set [2], the concentration for half-maximal inhibition (IC50) came to 6.7 µM. Turning to `COc1cccc(-c2cc(-c3cccnc3)ncn2)c1` [Compound 5, 4-(3-Methoxyphenyl)-6-(pyridin-3-yl)pyrimidine], the melting point lay within 124 to 125 °C. On to “4-(2-Methoxyphenyl)-6-(pyridin-4-yl)pyrimidin-2-amine [Compound 25]”, for which, in data set [3], the CC50 was above 70 µM.

As for `COc1ccc(-c2cc(-c3cccnc3)ncn2)cc1OC` [Compound 9, 4-(3,4-Dimethoxyphenyl)-6-(pyridin-3-yl)pyrimidine], the melting point was 131 to 134 °C. The compound `Nc1nc(-c2cccnc2)cc(-c2ccc3c(c2)OCO3)n1` [Compound 21, 4-(2H-1,3-benzodioxol-5-yl)-6-(pyridin-3-yl)pyrimidin-2-amine] had a melting point of 236 to 238 °C. For the same compound, the CC50 at 70 h in data set [1] (setting [4]) is above 100 µM. Also, the IC50 in data set [2] came to 12.9 µM. As to `COc1cccc(-c2cc(-c3cccnc3)nc(N)n2)c1` [Compound 15, 4-(3-Methoxyphenyl)-6-(pyridin-3-yl)pyrimidin-2-amine], the melting point was in the range of 162 to 164 °C.

Take `Nc1nc(-c2cccnc2)cc(-c2cccnc2)n1` [Compound 12, 4,6-Bis(Pyridin-3-yl)pyrimidin-2-amine]: the melting point lay in the range of 229 to 230 °C. Compound “4-(2-Methoxyphenyl)-6-(pyridin-4-yl)pyrimidine [Compound 24]” displayed a CC50 in data set [3] above 100 µM.

In turn, `Nc1nc(-c2cccnc2)cc(-c2cccc(Br)c2)n1` [Compound 16, 4-(3-Bromophenyl)-6-(pyridin-3-yl)pyrimidin-2-amine] yielded a melting point of 169 to 171 °C.

The compound `Brc1cccc(-c2cc(-c3cccnc3)ncn2)c1` [Compound 6, 4-(3-Bromophenyl)-6-(pyridin-3-yl)pyrimidine] had a melting point of 162 to 163 °C. In the case of “4-(2-Methoxyphenyl)-6-(pyridin-2-yl)pyrimidin-2-amine [Compound 23]”, the CC50 in data set [3] is above 100 µM. Regarding `COc1cc([C@@H]2c3cc4c(cc3[C@H](O)[C@H]3COC(=O)[C@H]23)OCO4)cc(OC)c1OC` [Podophyllotoxin, reference compound], in data set [1], the CC50 at 70 h worked out at 0.019 µM. As to `COc1ccccc1-c1cc(-c2cccnc2)ncn1` [Compound 3, 4-(2-Methoxyphenyl)-6-(pyridin-3-yl)pyrimidine], the melting point is 102 to 104 °C. Take `Nc1nc(-c2cccnc2)cc(-c2ccccc2Br)n1` [Compound 14, 4-(2-Bromophenyl)-6-(pyridin-3-yl)pyrimidin-2-amine]: the melting point fell in the range of 149 to 152 °C. On to `c1ccc(-c2cc(-c3cccnc3)ncn2)cc1` [Compound 1, 4-Phenyl-6-(pyridin-3-yl)pyrimidine], for which the melting point was in the range of 116 to 118 °C.

In turn, `Fc1cccc(-c2cc(-c3cccnc3)ncn2)c1` [Compound 7, 4-(3-Fluorophenyl)-6-(pyridin-3-yl)pyrimidine] showed a melting point of 193 to 195 °C.
